Results on two compounds are retold here after patent EP4741383A1, “COMPOUND AND USE THEREOF AS ANTI-CANCER DRUG” (Tyligand Bioscience (Shanghai) Limited, priority 2023, dated 2025).

Each structure is given as a SMILES string. pIC50: −log10 of the molar value.

One assay addresses FAP1. Briefly: Tyrosine phosphatase selectivity (pNPP substrate), FAP1. Type of assay: biochemical. As to conditions: selectivity ratio FAP1 over SHP2. The procedure: (§1) This experiment evaluated the selectivity of the disclosed compounds against tyrosine phosphatases, including SHP1, HePTP, Laforin, LMWPTP, LYP, PTP1B, PRL2, SSU72, VHR, FAP1, STEP, CDC14A, CD45, MEG2, and PP5, all expressed and purified from E. coli.
(§2) Phosphatase activity was measured using p-nitrophenyl phosphate (pNPP) (Fisher Scientific) as the substrate in 50 mM 3,3-dimethylglutaric acid buffer (pH 7.0, containing 1 mM EDTA), with ionic strength adjusted to 0.15 M with NaCl. […] After 10-60 minutes, the reaction was quenched by adding 20 µL of 5 N NaOH. Wells without enzyme were used as controls for correction. The amount of the product, p-nitrophenol, was determined by measuring the absorbance at 405 nm using a Spectra MAX340 microplate spectrophotometer (Molecular Devices), with a molar extinction coefficient of 18000 M^-1cm^-1.
(§3) Data were analyzed using GraphPad Prism software. Dose-response curves were obtained by fitting data using the nonlinear S-curve regression Dose-response-inhibition equation, and IC50 values were calculated.
As for `O=C(Nc1ccc(-c2ccsc2)cc1)C(=O)Nc1ccc(-c2cc3cc(F)c(-c4nnn[nH]4)cc3n2C2CCC2)cc1` [Example 4], the “IC50PTP/IC50SHP2 FAP1” value worked out at 672.4.

Take `O=C(Nc1ccc(-c2ccsc2)cc1)C(=O)Nc1ccc(-c2cc3cc(F)c(-c4nnn[nH]4)nc3n2C2CCC2)cc1` [Example 132]: the “IC50PTP/IC50SHP2 FAP1” value is 500.

The target of a further assay is T1, FAP1 (Homo sapiens, UniProt Q12923).
T1 sequence (Q12923 2163-2477): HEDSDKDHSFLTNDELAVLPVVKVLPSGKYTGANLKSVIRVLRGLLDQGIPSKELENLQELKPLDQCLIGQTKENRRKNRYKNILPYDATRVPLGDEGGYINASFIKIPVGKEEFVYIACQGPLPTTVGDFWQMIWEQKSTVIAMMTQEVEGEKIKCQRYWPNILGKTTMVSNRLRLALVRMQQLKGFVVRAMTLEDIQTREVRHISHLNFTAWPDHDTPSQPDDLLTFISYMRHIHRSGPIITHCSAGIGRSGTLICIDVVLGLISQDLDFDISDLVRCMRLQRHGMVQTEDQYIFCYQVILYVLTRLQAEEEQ
Described as above. It is filed as biochemical. As to conditions: FAP1, pNPP substrate. On the procedure: as §1, §2, §3
A word on the pIC50: it is the IC50 on a negative log10 scale, so that one unit is a factor of ten. Read a high pIC50 as a low IC50. On to `O=C(Nc1ccc(-c2ccsc2)cc1)C(=O)Nc1ccc(-c2cc3cc(F)c(-c4nnn[nH]4)cc3n2C2CCC2)cc1` [Example 4], for which the pIC50 is 4.71.

With `O=C(Nc1ccc(-c2ccsc2)cc1)C(=O)Nc1ccc(-c2cc3cc(F)c(-c4nnn[nH]4)nc3n2C2CCC2)cc1` [Example 132], the pIC50 was 4.87.

In the next assay the target is T2, SHP1 (Homo sapiens, UniProt P29350).
T2 construct: made in house; host or cells: E. coli
T2 sequence (P29350 whole entry): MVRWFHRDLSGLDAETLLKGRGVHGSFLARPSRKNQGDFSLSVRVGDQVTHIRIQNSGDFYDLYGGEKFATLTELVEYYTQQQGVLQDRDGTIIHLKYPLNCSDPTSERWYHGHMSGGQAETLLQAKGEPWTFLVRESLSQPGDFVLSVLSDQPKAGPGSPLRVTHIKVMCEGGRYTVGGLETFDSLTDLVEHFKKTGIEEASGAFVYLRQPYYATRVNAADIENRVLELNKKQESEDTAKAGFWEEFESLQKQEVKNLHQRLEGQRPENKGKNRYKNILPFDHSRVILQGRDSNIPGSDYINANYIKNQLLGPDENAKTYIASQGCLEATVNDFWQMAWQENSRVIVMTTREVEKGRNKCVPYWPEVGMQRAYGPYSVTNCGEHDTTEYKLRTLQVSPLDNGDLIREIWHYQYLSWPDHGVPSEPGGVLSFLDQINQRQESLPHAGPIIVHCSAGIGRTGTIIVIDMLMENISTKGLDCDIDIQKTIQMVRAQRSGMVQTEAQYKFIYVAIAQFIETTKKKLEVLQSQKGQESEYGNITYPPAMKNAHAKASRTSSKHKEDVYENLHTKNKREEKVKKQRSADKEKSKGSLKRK
Briefly: Tyrosine phosphatase selectivity (pNPP substrate), SHP1. Type of assay: biochemical. As to conditions: SHP1, pNPP substrate. The procedure:
as §1, §2, §3
`O=C(Nc1ccc(-c2ccsc2)cc1)C(=O)Nc1ccc(-c2cc3cc(F)c(-c4nnn[nH]4)cc3n2C2CCC2)cc1` [Example 4] showed a pIC50 of 6.22.

Turning to `O=C(Nc1ccc(-c2ccsc2)cc1)C(=O)Nc1ccc(-c2cc3cc(F)c(-c4nnn[nH]4)nc3n2C2CCC2)cc1` [Example 132], the pIC50 was 6.22.

The same assay, now with this note: selectivity ratio SHP1 over SHP2.
`O=C(Nc1ccc(-c2ccsc2)cc1)C(=O)Nc1ccc(-c2cc3cc(F)c(-c4nnn[nH]4)cc3n2C2CCC2)cc1` [Example 4]: the “IC50PTP/IC50SHP2 SHP1” value was 20.7.

For the compound `O=C(Nc1ccc(-c2ccsc2)cc1)C(=O)Nc1ccc(-c2cc3cc(F)c(-c4nnn[nH]4)nc3n2C2CCC2)cc1` [Example 132], the “IC50PTP/IC50SHP2 SHP1” value is reported as 22.2.

Another assay has as its target T3, CDC14A (Homo sapiens, UniProt Q9UNH5).
T3 construct: made in house; host or cells: E. coli
T3 sequence (Q9UNH5 1-594): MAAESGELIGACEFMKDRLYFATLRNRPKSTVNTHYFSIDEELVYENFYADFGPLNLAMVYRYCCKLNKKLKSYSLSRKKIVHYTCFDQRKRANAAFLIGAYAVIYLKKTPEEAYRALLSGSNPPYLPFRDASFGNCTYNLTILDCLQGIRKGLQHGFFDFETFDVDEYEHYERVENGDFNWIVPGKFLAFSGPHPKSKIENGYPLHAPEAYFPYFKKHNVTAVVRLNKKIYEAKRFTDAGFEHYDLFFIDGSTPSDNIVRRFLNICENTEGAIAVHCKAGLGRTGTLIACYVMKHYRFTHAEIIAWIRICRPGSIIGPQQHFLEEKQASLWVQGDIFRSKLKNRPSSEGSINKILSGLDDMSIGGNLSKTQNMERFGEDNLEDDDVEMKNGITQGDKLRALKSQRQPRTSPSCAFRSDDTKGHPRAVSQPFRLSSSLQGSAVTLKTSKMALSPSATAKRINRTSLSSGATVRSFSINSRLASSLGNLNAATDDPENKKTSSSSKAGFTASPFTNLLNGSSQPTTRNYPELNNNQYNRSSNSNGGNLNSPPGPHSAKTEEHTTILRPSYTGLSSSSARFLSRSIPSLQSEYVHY
In words: Tyrosine phosphatase selectivity (pNPP substrate), CDC14A. Type of assay: biochemical. The note with it: CDC14A, pNPP substrate. The procedure:
as §1, §2, §3
As for `O=C(Nc1ccc(-c2ccsc2)cc1)C(=O)Nc1ccc(-c2cc3cc(F)c(-c4nnn[nH]4)cc3n2C2CCC2)cc1` [Example 4], the pIC50 was under 4.30.

`O=C(Nc1ccc(-c2ccsc2)cc1)C(=O)Nc1ccc(-c2cc3cc(F)c(-c4nnn[nH]4)nc3n2C2CCC2)cc1` [Example 132]: the pIC50 was under 4.30.

Still in this assay, the particulars now being: selectivity ratio CDC14A over SHP2.
Regarding `O=C(Nc1ccc(-c2ccsc2)cc1)C(=O)Nc1ccc(-c2cc3cc(F)c(-c4nnn[nH]4)cc3n2C2CCC2)cc1` [Example 4], the “IC50PTP/IC50SHP2 CDC14A” value is 1724.1.

On to `O=C(Nc1ccc(-c2ccsc2)cc1)C(=O)Nc1ccc(-c2cc3cc(F)c(-c4nnn[nH]4)nc3n2C2CCC2)cc1` [Example 132], for which the “IC50PTP/IC50SHP2 CDC14A” value is 1851.9.

Another assay addresses T4, HePTP (Homo sapiens, UniProt P35236).
T4 construct: made in house; host or cells: E. coli
T4 sequence (P35236 1-360): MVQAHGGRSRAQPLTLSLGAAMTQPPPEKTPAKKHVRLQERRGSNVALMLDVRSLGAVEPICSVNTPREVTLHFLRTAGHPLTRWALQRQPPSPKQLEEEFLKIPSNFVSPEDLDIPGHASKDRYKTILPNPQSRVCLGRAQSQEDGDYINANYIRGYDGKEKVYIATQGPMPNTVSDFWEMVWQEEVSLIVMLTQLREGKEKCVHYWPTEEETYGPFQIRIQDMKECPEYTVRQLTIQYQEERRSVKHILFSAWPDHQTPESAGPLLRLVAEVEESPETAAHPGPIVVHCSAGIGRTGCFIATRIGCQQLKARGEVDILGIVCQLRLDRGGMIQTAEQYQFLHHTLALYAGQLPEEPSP
Briefly: Tyrosine phosphatase selectivity (pNPP substrate), HePTP. It is filed as biochemical. As to conditions: HePTP, pNPP substrate. The procedure:
as §1, §2, §3
In the case of `O=C(Nc1ccc(-c2ccsc2)cc1)C(=O)Nc1ccc(-c2cc3cc(F)c(-c4nnn[nH]4)cc3n2C2CCC2)cc1` [Example 4], the pIC50 was 5.35.

`O=C(Nc1ccc(-c2ccsc2)cc1)C(=O)Nc1ccc(-c2cc3cc(F)c(-c4nnn[nH]4)nc3n2C2CCC2)cc1` [Example 132] had a pIC50 of 5.24.

Staying with this assay, now noted: selectivity ratio HePTP over SHP2.
For the compound `O=C(Nc1ccc(-c2ccsc2)cc1)C(=O)Nc1ccc(-c2cc3cc(F)c(-c4nnn[nH]4)cc3n2C2CCC2)cc1` [Example 4], the “IC50PTP/IC50SHP2 HePTP” value is 155.2.

As to `O=C(Nc1ccc(-c2ccsc2)cc1)C(=O)Nc1ccc(-c2cc3cc(F)c(-c4nnn[nH]4)nc3n2C2CCC2)cc1` [Example 132], the “IC50PTP/IC50SHP2 HePTP” value is 211.1.

The target of the next assay is T5, PRL2 (Homo sapiens, UniProt Q12974).
T5 construct: made in house; host or cells: E. coli
T5 sequence (Q12974 1-167): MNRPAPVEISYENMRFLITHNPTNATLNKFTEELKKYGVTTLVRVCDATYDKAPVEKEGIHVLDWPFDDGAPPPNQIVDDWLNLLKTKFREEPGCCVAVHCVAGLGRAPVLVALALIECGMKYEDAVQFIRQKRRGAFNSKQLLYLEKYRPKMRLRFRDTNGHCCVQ
In words: Tyrosine phosphatase selectivity (pNPP substrate), PRL2. Type of assay: biochemical. As to conditions: PRL2, pNPP substrate. The procedure:
as §1, §2, §3
`O=C(Nc1ccc(-c2ccsc2)cc1)C(=O)Nc1ccc(-c2cc3cc(F)c(-c4nnn[nH]4)cc3n2C2CCC2)cc1` [Example 4] gave a pIC50 of under 4.30.

On to `O=C(Nc1ccc(-c2ccsc2)cc1)C(=O)Nc1ccc(-c2cc3cc(F)c(-c4nnn[nH]4)nc3n2C2CCC2)cc1` [Example 132], for which the negative-log IC50 (pIC50) was under 4.30.

The assay is the same for the next values; noted with them: selectivity ratio PRL2 over SHP2.
For the compound `O=C(Nc1ccc(-c2ccsc2)cc1)C(=O)Nc1ccc(-c2cc3cc(F)c(-c4nnn[nH]4)cc3n2C2CCC2)cc1` [Example 4], the “IC50PTP/IC50SHP2 PRL2” value is reported as 1724.1.

Turning to `O=C(Nc1ccc(-c2ccsc2)cc1)C(=O)Nc1ccc(-c2cc3cc(F)c(-c4nnn[nH]4)nc3n2C2CCC2)cc1` [Example 132], the “IC50PTP/IC50SHP2 PRL2” value was determined as 1851.9.

The next assay concerns the target T6, LMWPTP (Homo sapiens, UniProt P24666).
T6 construct: made in house; host or cells: E. coli
T6 sequence (P24666 1-158): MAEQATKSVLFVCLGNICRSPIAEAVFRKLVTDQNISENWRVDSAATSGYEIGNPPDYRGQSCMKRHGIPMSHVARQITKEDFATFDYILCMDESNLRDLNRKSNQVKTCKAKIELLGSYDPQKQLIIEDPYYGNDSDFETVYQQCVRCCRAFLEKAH
Briefly: Tyrosine phosphatase selectivity (pNPP substrate), LMWPTP. Type of assay: biochemical. As to conditions: LMPTP*, pNPP substrate. On the procedure: as §1, §2, §3
`O=C(Nc1ccc(-c2ccsc2)cc1)C(=O)Nc1ccc(-c2cc3cc(F)c(-c4nnn[nH]4)cc3n2C2CCC2)cc1` [Example 4] showed a pIC50 of under 4.70.

`O=C(Nc1ccc(-c2ccsc2)cc1)C(=O)Nc1ccc(-c2cc3cc(F)c(-c4nnn[nH]4)nc3n2C2CCC2)cc1` [Example 132] had a pIC50 of under 4.70.

Staying with this assay, now noted: selectivity ratio LMPTP* over SHP2.
`O=C(Nc1ccc(-c2ccsc2)cc1)C(=O)Nc1ccc(-c2cc3cc(F)c(-c4nnn[nH]4)cc3n2C2CCC2)cc1` [Example 4]: the “IC50PTP/IC50SHP2 LMPTP*” value is listed as 689.7.

`O=C(Nc1ccc(-c2ccsc2)cc1)C(=O)Nc1ccc(-c2cc3cc(F)c(-c4nnn[nH]4)nc3n2C2CCC2)cc1` [Example 132]: the “IC50PTP/IC50SHP2 LMPTP*” value turned out to be 740.7.
